Assay [1] concerns the target Mitogen-activated protein kinase 1 (Homo sapiens) (UniProt P28482). Put plainly: Inhibition of human full length ERK2 expressed in Escherichia coli cell assessed as substrate phosphorylation using fluorescence-labelled peptides as substrate at 2 uM after 90 mins by microfluidic peptide phosphorylation assay.
In assay [2] the target is Receptor-type tyrosine-protein kinase FLT3 (Homo sapiens) (UniProt P36888). The assay can be described thus: Inhibition of human FLT3 catalytic domain expressed in baculovirus assessed as substrate phosphorylation using fluorescence-labelled peptides as substrate at 2 uM after 90 mins by microfluidic peptide phosphorylation assay.
Assay [3] concerns the target Serine/threonine-protein kinase MARK1 (Homo sapiens) (UniProt Q9P0L2). As to conditions: 0.1 uM.
Description: Inhibition of human full length MARK1 expressed in baculovirus assessed as substrate phosphorylation using fluorescence-labelled peptides as substrate at 0.1 uM after 90 mins by microfluidic peptide phosphorylation assay
Assay [4] deals with Fibroblast growth factor receptor 2 (Homo sapiens) (UniProt P21802). As to conditions: 0.1 uM.
Description: Inhibition of human FGFR2 catalytic domain expressed in baculovirus assessed as substrate phosphorylation using fluorescence-labelled peptides as substrate at 0.1 uM after 90 mins by microfluidic peptide phosphorylation assay
For assay [5], the target named is Serine/threonine-protein kinase MARK1 (Homo sapiens) (UniProt Q9P0L2). Put plainly: Inhibition of human full length MARK1 expressed in baculovirus assessed as substrate phosphorylation using fluorescence-labelled peptides as substrate at 9 uM after 90 mins by microfluidic peptide phosphorylation assay.
For assay [6], the target named is Fibroblast growth factor receptor 1 (Homo sapiens) (UniProt P11362). Put plainly: Inhibition of human FGFR1 catalytic domain expressed in baculovirus assessed as substrate phosphorylation using fluorescence-labelled peptides as substrate at 9 uM after 90 mins by microfluidic peptide phosphorylation assay.
In assay [7] the target is Fibroblast growth factor receptor 2 (Homo sapiens) (UniProt P21802). Put plainly: Inhibition of human FGFR2 catalytic domain expressed in baculovirus assessed as substrate phosphorylation using fluorescence-labelled peptides as substrate at 95 uM after 90 mins by microfluidic peptide phosphorylation assay.
Assay [8] deals with T1, Serine/threonine-protein kinase D3 (Homo sapiens) (UniProt O94806).
T1 sequence (whole entry): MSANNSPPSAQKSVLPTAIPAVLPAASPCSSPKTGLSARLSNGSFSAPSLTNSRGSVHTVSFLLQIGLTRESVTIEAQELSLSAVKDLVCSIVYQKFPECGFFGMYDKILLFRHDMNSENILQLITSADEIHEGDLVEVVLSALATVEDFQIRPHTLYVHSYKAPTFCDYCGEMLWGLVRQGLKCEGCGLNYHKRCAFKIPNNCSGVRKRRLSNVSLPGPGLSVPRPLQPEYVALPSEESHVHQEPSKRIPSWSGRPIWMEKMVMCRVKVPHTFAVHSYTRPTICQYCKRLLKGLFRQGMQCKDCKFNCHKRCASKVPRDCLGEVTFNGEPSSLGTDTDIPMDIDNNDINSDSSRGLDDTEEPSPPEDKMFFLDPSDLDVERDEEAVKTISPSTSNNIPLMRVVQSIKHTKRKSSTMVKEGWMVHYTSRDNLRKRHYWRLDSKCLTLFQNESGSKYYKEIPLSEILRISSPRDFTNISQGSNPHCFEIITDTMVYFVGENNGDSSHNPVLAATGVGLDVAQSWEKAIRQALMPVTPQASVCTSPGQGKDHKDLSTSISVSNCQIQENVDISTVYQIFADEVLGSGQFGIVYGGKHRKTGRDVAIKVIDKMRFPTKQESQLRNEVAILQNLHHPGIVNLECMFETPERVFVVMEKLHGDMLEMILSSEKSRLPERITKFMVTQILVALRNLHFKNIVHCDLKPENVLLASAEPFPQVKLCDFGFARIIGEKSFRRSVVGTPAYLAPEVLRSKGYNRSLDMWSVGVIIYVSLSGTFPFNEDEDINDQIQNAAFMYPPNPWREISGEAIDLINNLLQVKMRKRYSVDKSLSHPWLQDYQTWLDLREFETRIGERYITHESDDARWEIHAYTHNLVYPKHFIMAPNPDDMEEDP
Put plainly: Inhibition of human full length PKD3 expressed in baculovirus assessed as substrate phosphorylation using fluorescence-labelled peptides as substrate at 8 uM after 90 mins by microfluidic peptide phosphorylation assay.

Assay [9] has as its system Fibroblast growth factor receptor 2 (Homo sapiens), P21802 [N549H]. The assay can be described thus: Inhibition of human FGFR2 N549H mutant catalytic domain expressed in baculovirus assessed as substrate phosphorylation using fluorescence-labelled peptides as substrate at 8 uM after 90 mins by microfluidic peptide phosphorylation assay.
For assay [10], the target named is Casein kinase I isoform alpha (Homo sapiens) (UniProt P48729). The assay can be described thus: Inhibition of human full length CSNK1A1 expressed in baculovirus assessed as substrate phosphorylation using fluorescence-labelled peptides as substrate at 70 uM after 90 mins by microfluidic peptide phosphorylation assay.
The target of assay [11] is Protein kinase C beta type (Homo sapiens) (UniProt P05771). Put plainly: Inhibition of human truncated PKC beta1 expressed in baculovirus assessed as substrate phosphorylation using fluorescence-labelled peptides as substrate at […] after 90 mins by microfluidic peptide phosphorylation assay.
The target in assay [12] is Platelet-derived growth factor receptor alpha (Homo sapiens) (UniProt P16234). The assay can be described thus: Inhibition of human PDGFR alpha catalytic domain expressed in baculovirus assessed as substrate phosphorylation using fluorescence-labelled peptides as substrate at […] after 90 mins by microfluidic peptide phosphorylation assay.
For assay [13], the target named is Tyrosine-protein kinase Fyn (Homo sapiens) (UniProt P06241). Put plainly: Inhibition of human full length FYN expressed in baculovirus assessed as substrate phosphorylation using fluorescence-labelled peptides as substrate at […] after 90 mins by microfluidic peptide phosphorylation assay.
For assay [14], the target named is T2, Serine/threonine-protein kinase BRSK2 (Homo sapiens) (UniProt Q8IWQ3).
T2 sequence (whole entry): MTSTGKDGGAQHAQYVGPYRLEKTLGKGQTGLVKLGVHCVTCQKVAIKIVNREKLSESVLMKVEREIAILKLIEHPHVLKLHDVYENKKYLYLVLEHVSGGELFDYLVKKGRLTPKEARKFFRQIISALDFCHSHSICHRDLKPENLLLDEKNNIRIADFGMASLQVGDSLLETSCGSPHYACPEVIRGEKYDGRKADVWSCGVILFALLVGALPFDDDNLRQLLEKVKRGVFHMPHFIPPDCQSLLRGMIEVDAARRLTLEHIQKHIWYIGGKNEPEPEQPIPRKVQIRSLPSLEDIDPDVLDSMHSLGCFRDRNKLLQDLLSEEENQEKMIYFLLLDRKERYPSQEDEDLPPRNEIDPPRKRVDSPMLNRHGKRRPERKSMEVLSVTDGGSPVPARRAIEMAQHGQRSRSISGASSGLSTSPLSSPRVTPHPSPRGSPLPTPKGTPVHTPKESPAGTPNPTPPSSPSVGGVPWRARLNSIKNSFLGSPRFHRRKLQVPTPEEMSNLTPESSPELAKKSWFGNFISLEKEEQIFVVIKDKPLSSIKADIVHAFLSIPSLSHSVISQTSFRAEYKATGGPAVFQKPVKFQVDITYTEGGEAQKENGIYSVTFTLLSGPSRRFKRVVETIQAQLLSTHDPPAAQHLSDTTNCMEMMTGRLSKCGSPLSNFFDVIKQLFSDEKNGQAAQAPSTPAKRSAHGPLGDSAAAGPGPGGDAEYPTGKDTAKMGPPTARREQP
Put plainly: Inhibition of human truncated BRSK2 expressed in baculovirus assessed as substrate phosphorylation using fluorescence-labelled peptides as substrate at 1000 uM after 90 mins by microfluidic peptide phosphorylation assay.

These results are taken from ChEMBL document CHEMBL3132769, “Fragment growing to retain or alter the selectivity of anchored kinase hinge-binding fragments” (Medchemcomm, 2014).

Serine/threonine-protein kinase MARK1 (Homo sapiens), sequence (Q9P0L2 whole entry, looked up, the tested form may be a part): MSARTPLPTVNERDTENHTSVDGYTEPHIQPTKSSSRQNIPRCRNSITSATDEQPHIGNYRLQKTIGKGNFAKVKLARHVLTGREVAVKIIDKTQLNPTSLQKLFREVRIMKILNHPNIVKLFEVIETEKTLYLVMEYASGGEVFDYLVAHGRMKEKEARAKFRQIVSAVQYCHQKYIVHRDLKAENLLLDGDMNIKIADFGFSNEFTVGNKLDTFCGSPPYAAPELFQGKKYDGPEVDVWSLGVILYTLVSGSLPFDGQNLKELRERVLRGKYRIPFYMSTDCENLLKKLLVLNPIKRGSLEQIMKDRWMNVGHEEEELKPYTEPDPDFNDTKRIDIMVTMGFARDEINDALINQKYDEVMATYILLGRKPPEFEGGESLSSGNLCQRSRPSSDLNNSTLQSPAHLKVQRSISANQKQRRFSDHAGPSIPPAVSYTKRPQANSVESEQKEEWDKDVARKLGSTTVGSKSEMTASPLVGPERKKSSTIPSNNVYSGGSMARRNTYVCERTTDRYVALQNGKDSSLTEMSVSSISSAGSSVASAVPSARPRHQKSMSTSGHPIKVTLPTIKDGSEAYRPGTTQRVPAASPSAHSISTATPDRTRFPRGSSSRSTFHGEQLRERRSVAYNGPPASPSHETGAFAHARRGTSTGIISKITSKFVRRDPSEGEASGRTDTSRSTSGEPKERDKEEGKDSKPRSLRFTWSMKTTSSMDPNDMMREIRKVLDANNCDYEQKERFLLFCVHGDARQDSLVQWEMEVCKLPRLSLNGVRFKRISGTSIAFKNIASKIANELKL
Fibroblast growth factor receptor 2 (Homo sapiens), sequence (P21802 22-821 limits assumed): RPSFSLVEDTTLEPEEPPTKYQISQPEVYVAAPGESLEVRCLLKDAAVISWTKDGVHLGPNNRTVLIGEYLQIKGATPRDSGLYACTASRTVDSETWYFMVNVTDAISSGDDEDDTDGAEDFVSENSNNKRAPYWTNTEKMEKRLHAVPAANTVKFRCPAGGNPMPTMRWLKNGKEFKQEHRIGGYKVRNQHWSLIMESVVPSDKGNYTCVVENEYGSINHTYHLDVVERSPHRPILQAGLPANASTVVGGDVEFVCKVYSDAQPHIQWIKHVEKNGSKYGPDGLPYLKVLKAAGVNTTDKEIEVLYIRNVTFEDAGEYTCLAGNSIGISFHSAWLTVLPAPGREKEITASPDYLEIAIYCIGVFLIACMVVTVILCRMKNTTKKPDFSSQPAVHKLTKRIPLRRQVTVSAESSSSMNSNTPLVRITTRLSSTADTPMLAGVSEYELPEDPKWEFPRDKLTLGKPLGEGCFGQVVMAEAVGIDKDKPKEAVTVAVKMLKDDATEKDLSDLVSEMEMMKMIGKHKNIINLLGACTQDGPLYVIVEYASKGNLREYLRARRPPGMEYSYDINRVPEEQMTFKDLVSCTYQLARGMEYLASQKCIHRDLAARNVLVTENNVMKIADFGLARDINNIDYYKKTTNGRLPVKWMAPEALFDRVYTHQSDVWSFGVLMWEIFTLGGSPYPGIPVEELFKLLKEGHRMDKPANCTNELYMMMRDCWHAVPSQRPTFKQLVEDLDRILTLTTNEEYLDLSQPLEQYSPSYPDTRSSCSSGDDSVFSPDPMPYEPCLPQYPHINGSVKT
Casein kinase I isoform alpha (Homo sapiens), sequence (P48729 2-337 limits assumed): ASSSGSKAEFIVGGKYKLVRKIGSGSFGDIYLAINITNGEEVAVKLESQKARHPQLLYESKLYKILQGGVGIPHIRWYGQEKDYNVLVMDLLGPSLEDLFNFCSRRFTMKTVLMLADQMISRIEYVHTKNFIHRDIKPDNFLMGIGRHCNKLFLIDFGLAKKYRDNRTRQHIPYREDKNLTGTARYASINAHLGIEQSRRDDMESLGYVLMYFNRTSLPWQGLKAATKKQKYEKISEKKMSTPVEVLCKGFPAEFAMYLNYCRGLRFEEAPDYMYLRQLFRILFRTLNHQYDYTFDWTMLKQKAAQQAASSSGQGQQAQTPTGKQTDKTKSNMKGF
Mitogen-activated protein kinase 1 (Homo sapiens), sequence (P28482 whole entry, the tested form may be a part): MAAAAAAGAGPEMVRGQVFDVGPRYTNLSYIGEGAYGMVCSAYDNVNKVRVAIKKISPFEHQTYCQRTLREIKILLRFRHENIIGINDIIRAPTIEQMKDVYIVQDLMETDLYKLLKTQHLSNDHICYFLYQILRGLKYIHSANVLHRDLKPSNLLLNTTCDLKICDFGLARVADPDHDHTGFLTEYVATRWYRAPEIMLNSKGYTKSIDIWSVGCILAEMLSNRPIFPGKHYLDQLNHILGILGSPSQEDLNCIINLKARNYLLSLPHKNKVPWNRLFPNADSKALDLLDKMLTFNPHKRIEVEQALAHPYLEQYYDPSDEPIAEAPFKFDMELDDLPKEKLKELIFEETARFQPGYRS
Fibroblast growth factor receptor 2 (Homo sapiens), P21802 [N549H], sequence (P21802 whole entry N549H, the tested form may be a part, canonical isoform): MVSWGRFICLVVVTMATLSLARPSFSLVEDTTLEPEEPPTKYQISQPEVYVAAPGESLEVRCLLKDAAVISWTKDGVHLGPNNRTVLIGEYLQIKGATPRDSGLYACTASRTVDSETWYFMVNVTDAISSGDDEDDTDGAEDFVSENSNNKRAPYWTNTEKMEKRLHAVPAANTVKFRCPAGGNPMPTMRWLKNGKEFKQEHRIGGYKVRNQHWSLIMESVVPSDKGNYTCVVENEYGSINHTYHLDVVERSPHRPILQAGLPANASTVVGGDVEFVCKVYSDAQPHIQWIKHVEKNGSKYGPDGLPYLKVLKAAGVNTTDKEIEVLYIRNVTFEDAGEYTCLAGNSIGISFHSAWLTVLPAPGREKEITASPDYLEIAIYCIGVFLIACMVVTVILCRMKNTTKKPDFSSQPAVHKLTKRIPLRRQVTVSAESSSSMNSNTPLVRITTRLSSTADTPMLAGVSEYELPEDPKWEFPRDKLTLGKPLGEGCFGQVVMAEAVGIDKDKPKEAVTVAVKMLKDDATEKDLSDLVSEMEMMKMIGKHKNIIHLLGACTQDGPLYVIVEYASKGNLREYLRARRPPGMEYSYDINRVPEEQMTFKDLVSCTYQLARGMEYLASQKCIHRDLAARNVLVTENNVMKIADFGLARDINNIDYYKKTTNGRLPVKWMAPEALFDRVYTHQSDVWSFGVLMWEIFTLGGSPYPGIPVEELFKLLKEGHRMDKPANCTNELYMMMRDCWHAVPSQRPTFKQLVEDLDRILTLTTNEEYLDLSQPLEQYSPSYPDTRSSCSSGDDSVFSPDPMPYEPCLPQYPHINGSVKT
Receptor-type tyrosine-protein kinase FLT3 (Homo sapiens), sequence (P36888 whole entry, the tested form may be a part): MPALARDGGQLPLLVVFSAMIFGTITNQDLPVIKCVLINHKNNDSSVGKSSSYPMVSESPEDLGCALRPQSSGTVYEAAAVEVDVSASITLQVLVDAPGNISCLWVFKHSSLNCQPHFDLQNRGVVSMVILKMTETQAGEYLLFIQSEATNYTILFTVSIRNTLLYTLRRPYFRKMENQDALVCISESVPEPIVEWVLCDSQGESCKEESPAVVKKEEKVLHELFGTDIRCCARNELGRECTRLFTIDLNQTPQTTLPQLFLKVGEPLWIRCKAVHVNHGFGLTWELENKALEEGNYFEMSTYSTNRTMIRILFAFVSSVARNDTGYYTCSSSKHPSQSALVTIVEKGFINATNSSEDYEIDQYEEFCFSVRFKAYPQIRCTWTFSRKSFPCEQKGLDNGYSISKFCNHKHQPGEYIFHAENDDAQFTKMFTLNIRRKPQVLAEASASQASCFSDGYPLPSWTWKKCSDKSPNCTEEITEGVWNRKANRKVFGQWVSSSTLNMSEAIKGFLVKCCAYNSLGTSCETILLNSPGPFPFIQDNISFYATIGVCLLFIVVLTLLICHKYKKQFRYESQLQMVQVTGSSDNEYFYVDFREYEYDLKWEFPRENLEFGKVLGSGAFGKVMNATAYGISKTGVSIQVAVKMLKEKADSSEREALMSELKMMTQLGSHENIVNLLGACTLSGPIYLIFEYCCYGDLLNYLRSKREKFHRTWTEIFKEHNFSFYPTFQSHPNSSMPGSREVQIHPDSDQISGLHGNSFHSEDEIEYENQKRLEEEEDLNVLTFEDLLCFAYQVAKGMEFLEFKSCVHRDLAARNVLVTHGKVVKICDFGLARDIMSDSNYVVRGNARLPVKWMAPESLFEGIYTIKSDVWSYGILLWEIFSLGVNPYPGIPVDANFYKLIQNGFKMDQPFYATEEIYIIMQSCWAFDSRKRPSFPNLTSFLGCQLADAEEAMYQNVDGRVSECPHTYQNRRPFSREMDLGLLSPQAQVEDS
Protein kinase C beta type (Homo sapiens), sequence (P05771 2-671 limits assumed): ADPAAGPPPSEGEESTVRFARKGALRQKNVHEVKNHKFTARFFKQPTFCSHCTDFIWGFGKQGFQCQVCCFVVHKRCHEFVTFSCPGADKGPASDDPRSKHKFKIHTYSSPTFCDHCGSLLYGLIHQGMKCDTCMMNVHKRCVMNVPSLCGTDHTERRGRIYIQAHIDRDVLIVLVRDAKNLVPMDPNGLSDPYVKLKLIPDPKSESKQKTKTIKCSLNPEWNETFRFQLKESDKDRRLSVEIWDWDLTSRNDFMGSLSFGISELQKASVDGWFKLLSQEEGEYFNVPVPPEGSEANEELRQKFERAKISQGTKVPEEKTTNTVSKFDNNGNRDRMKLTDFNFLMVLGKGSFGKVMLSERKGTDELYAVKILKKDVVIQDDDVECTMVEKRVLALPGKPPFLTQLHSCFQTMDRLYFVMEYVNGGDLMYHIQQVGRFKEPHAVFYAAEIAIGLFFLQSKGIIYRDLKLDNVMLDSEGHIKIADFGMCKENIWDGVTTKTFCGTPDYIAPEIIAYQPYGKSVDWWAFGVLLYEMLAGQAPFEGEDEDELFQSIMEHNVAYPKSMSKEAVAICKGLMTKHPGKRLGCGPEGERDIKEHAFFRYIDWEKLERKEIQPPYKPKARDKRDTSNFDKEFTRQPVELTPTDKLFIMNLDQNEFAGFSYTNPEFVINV

As a reminder, the inhibition is the relative decrease from the control value, in per cent. `NC1CCN(c2ncnc3[nH]ccc23)CC1`: the figures for the inhibition in assay [1] and in [2] were 2.5% and 0%, respectively.
Consider `C[C@H](CN(C)C)Oc1nc(Nc2cc3cccc(Cl)c3cn2)cnc1C#N`, for which the inhibition in [3] and in assay [4] was 0% throughout.
Regarding `NCC1CN(c2ncnc3[nH]c4cnccc4c23)CCO1` (centres undefined), the inhibition turned out to be 2% in assay [5] and 55.5% in assay [6].
For `NCCc1ccc(-c2ncnc3[nH]cnc23)cc1`, in assay [7], the inhibition was 36%.
Consider `NCC1CCN(c2ncnc3[nH]ccc23)CC1`, for which the inhibition in assay [8] and in [9] was 0% each time.
For `CNCc1ccc(-c2ncnc3[nH]cnc23)cc1`, in assay [10], the inhibition is 45.5%.
`COC(=O)c1cnc(Nc2cnc(C#N)cn2)cc1NCC1CCNCC1`: the inhibition worked out at 2% in assay [11], 9.5% in assay [12] and 2% in assay [13].
Regarding `c1cnc2[nH]ccc2c1`, the inhibition in assay [14] is 28%.
